Measured values as given in patent US8916206B2, “Nanoparticles containing water-soluble non-peptide low-molecular weight drug” (LTT Bio-Pharma Co., Ltd., priority 2005, dated 2014).

Columns and labels:
[1] = test system: adjuvant arthritis rats; assay: Suppression of adjuvant arthritis, Example 9 (left hind leg volume, water displacement); format: in vivo, Lewis rats; details: average of 7 rats
Description: (§1) Fifty microliters of an incomplete Freund's adjuvant solution (DIFCO) containing 6 mg/mL of M. Butyricum Dessicated (DIFCO) was subcutaneously injected into the left hind paw of 7-week-old Lewis rats, weighing 130 to 160 g, under anesthesia with ether. The animals were divided into groups so that there is no significant difference in the volume of the left hind leg between the groups. 14 days after administration of M. Butyricum, one group was intravenously administered a single dose of the nanoparticles of the present invention encapsulating betamethasone phosphate (equivalent to 50 μg betamethasone). As controls, other groups were intravenously administered the same amount of an aqueous betamethasone phosphate solution or the PLA nanoparticles encapsulating betamethasone phosphate (nanoparticles described in Example 2 of International Patent Publication No. WO 2004/84871), each administered in a single dose.
(§2) The ability of the nanoparticles to suppress arthritic inflammation was analyzed by the water displacement technique by measuring the volume of the left hind legs before and after the administration of the nanoparticles.
(§3) Inflammation rate shown in Table 6 was determined with respect to the leg volume of the control group (=100) and calculated by the following equation: Inflammation rate(%)=(measured leg volume−leg volume without adjuvant)/(initial leg volume−leg volume without adjuvant)×100
As in Example 5, the ability of nanoparticles to suppress adjuvant arthritis was evaluated. Each inflammation rate is the average of 7 rats. Nanoparticles of the present invention containing betamethasone phosphate equivalent to 40 μg betamethasone were intravenously administered in a single dose.
As a control, another group of rats was intravenously administered the same amount of an aqueous solution of betamethasone phosphate in a single dose.

[2] = test system: adjuvant arthritis rats; assay: Suppression of adjuvant arthritis, Example 5 (left hind leg volume, water displacement); format: in vivo, Lewis rats; details: average of 4 rats
Description: as §1, §2, §3
Each inflammation rate is the average of 4 rats.

**Q.** For `C[C@H]1C[C@H]2[C@@H]3CCC4=CC(=O)C=C[C@]4(C)[C@@]3(F)[C@@H](O)C[C@]2(C)[C@@]1(O)C(=O)COP(=O)(O)O` [betamethasone phosphate], which Inflammation rate ([1]; 1 day after single i.v. dose equivalent to 40 μg betamethasone) is on record?
**A.** Its Inflammation rate is 81%.

**Q.** And the Inflammation rate ([1]; 2 days after single i.v. dose equivalent to 40 μg betamethasone)?
**A.** The Inflammation rate was 83%.

**Q.** And the Inflammation rate ([1]; 3 days after single i.v. dose equivalent to 40 μg betamethasone)?
**A.** Its Inflammation rate is 83%.

**Q.** And the Inflammation rate ([1]; 4 days after single i.v. dose equivalent to 40 μg betamethasone)?
**A.** Its Inflammation rate is 78%.

**Q.** What about the Inflammation rate ([1]; 5 days after single i.v. dose equivalent to 40 μg betamethasone) of the same compound?
**A.** Its Inflammation rate is 78%.

**Q.** And the Inflammation rate ([1]; 7 days after single i.v. dose equivalent to 40 μg betamethasone)?
**A.** The Inflammation rate was 79%.

**Q.** What about the Inflammation rate ([1]; 9 days after single i.v. dose equivalent to 40 μg betamethasone) of the same compound?
**A.** Its Inflammation rate is 79%.

**Q.** What about the Inflammation rate ([2]; 1 day after single i.v. dose equivalent to 50 μg betamethasone) of the same compound?
**A.** Its Inflammation rate is 83%.

**Q.** And the Inflammation rate ([2]; 2 days after single i.v. dose equivalent to 50 μg betamethasone)?
**A.** The Inflammation rate was 80%.

**Q.** What about the Inflammation rate ([2]; 3 days after single i.v. dose equivalent to 50 μg betamethasone) of the same compound?
**A.** Its Inflammation rate is 82%.

**Q.** And the Inflammation rate ([2]; 4 days after single i.v. dose equivalent to 50 μg betamethasone)?
**A.** The Inflammation rate was 83%.

**Q.** And the Inflammation rate ([2]; 6 days after single i.v. dose equivalent to 50 μg betamethasone)?
**A.** The Inflammation rate was 84%.

**Q.** And the Inflammation rate ([2]; 8 days after single i.v. dose equivalent to 50 μg betamethasone)?
**A.** Its Inflammation rate is 81%.
